The test system of experiment [1] is human colon cancer cell HT-29. The experiment can be described thus: Colon cancer cell HT-29 growth suppressive action in vitro (SRB). The experiment is classed as cell-based. The settings on record: 72 h, HT-29 cells, cultured for 3 days with compound, SRB staining, read-out: IC50 (nM), HT-29 growth suppression. The procedure: A cell suspension (100 μL, 3,000 cells/well) of human colon cancer cell HT-29 (purchased from ATCC) was plated in a 96-well plate, and the cells were cultured at 37° C. in a 5% carbon dioxide gas incubator. The next day, 2-fold serial dilution of each test compound solution (diluted from maximum concentration 20 μM) (100 μL) was added, and the cells were cultured for 3 days. The culture medium containing the test compound was removed, and the cells were washed with phosphate buffer (PBS). A 50% trichloroacetic acid solution was added to the final concentration of 10% (v/v), and the mixture was stood overnight at 4° C., whereby the cells were fixed to the plate. Then, a dye SRB 0.4% (W/V) solution (dissolved in 1% acetic acid) was added at 50 μl/well, whereby the cell protein was fixed and stained (Skehan et al., Journal Of National Cancer Institute, vol. 82, pp. 1107-1112, 1990). The cells were washed 3 times with 1% acetic acid solution (200 μL/well), and 100 μL of an extract (10 mM Tris buffer) was added to extract the dye. The absorbance at an absorption wavelength […] was measured, and cell amount was measured as a protein amount.

For experiment [2], the system named is phosphorylated MEK1/2 in human colon cancer cell HT-29. Kind of experiment: Colon cancer cell HT-29 intracellular MEK phosphorylation inhibitory action in vitro (Western blot). The experiment is classed as cell-based. The settings on record: HT-29 cells, 2 hr treatment, anti-phosphorylated MEK1/2 (Ser217/221), read-out: IC50 (nM), MEK phosphorylation inhibition. Here is the method: A cell suspension (500 μL) of human colon cancer cell HT-29 was plated in a 48-well plate (100,000 cells/well), and the cells were cultured overnight at 37° C. in the presence of 5% CO2, treated with a test compound (250 μL/well) diluted in 3-fold dilution series and cultured for two more hours. After 2 hr, the culture medium containing the test compound was removed, and the cells were lysed with SDS sample buffer (100 μL/well) and heated at 95° C. for 5 min. Thereafter, the cells were applied to SDS-PAGE, and the protein was transferred onto Sequi-Blot™ PVDF Membrane (Bio-Rad, Richmond, Calif.) by the Western blot method. The cells were blocked with a block-Ace solution (Snow Brand Milk Products Co., Ltd) dissolved in phosphate buffer to 5% W/V, and reacted overnight with anti-phosphorylated MEK1/2 (Ser217/221) (Cell signaling #9121) diluted 1000-fold with phosphate buffer containing 0.4% block-Ace. […] The membrane was washed in the same manner as above, chemical luminescence of a phosphorylated MEK1/2 protein labeled with the antibody, which was caused by ECL-plus Detection Reagent (Amersham bioscience), was detected by Luminescent Image Analyzer LAS-1000 (FUJIFILM Corporation).

Another experiment addresses T1, BRAF (V600E) kinase (Homo sapiens, UniProt P15056, V600E).
T1 construct: made in house; host or cells: SF-21 insect cells, recombinant baculovirus BAC-V600E
Kind of experiment: BRAF (V600E) kinase inhibitory activity ([γ-32P]ATP, GST-MEK1 (K96R) substrate). The experiment is classed as biochemical. The settings on record: 1 μM compound; BRAF (V600E) 30 ng, GST-MEK1 (K96R) 250 ng; room temperature, 20 min; read-out: The inhibitory rate of the compounds at 1 μM (%). Here is the method: Human BRAF gene was cloned by PCR using human Testis cDNA library (Clontech) as a template. The primer used for PCR was prepared from base sequence (Genbank Accession NM_004333) information of BRAF gene by adding a base sequence encoding flag peptide and a recognition sequence of the restriction enzyme to area encoding the BRAF kinase domain region, so that the protein contains an N-terminal Flag. The primer base sequence is shown below.
The PCR reaction was conducted using Pyrobest (Takara Shuzo Co., Ltd). The obtained PCR product was electrophoresed on agarose gel (1%), the DNA fragment amplified by PCR was recovered from the gel, and then digested with restriction enzymes EcoRI and SalI. The DNA treated with the restriction enzymes was electrophoresed on agarose gel (1%), and the obtained DNA fragment was recovered. The recovered DNA fragment was ligated to plasmid pFASTBAC1 (Invitrogen) digested with restriction enzymes EcoRI and SalI to give expression plasmid pFB-BRAF, and the base sequence of the insert fragment was confirmed. In addition, mutation was introduced into V600E using a Quick change Site Directed Mutagenesis kit (Stratagene). The nucleotide sequences of the primers used are shown in the following.
The obtained plasmid was sequenced to confirm the introduction of mutation into V600E. The plasmid DNA was digested with restriction enzymes EcoRI and SalI, DNA treated with the restriction enzymes was electrophoresed on agarose gel (1%), and the obtained DNA fragment was recovered. The recovered DNA fragment was ligated to plasmid pFASTBAC1 (Invitrogen) digested with restriction enzymes EcoRI and SalI to give expression plasmid pFB-V600E.
SF-21 cells were sown at 1×10^6 cells/mL to Sf-900II SFM medium (1 L, Invitrogen) containing 10% fetal bovine serum (Trace), 50 mg/L Gentamicin (Invitrogen) and 0.1% Pluronic F-68 (Invitrogen), and shaking culture was performed using a 2 L volume Erlenmeyer flask at 27° C., 100 rpm. After culturing for 24 hr, recombinant baculovirus BAC-V600E (13.4 mL) was added to the mixture, and the mixture was further cultured for 3 days. […]

T1 sequence (P15056 457-717 V600E limits assumed): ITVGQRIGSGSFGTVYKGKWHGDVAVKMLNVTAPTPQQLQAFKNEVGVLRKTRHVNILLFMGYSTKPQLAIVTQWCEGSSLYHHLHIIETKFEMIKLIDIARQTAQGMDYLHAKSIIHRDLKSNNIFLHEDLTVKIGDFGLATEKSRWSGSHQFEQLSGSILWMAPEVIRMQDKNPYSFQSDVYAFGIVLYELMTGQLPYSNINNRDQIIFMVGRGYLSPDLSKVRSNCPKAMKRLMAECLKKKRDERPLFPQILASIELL

With `Cc1ccc(NC(=O)c2cccc(C(C)(C)C#N)c2)cc1Oc1ccc2nc(NC(=O)C3CC3)nn2c1` [Example 233, 3-(1-cyano-1-methylethyl)-N-[3-({2-[(cyclopropylcarbonyl)amino][1,2,4]triazolo[1,5-a]pyridin-6-yl}oxy)-4-methylphenyl]benzamide], the IC50 in experiment [1] was under 500 nM. As to `CC(C)(C#N)c1cccc(C(=O)Nc2cccc(Oc3ccc4nc(NC(=O)C5CC5)cn4c3)c2)c1` [Example 228, 3-(1-cyano-1-methylethyl)-N-[3-({2-[(cyclopropylcarbonyl)amino]imidazo[1,2-a]pyridin-6-yl}oxy)phenyl]benzamide], the IC50 in experiment [2] and in experiment [1] was under 500 nM each time.

On to `N#CC1(c2cccc(C(=O)Nc3cccc(Oc4ccc5nc(NC(=O)C6CC6)nn5c4)c3)c2)CC1` [Example 232, 3-(1-cyanocyclopropyl)-N-[3-({2-[(cyclopropylcarbonyl)amino][1,2,4]triazolo[1,5-a]pyridin-6-yl}oxy)phenyl]benzamide], for which the IC50 in experiment [2] is under 500 nM. Turning to `Cc1ccc(NC(=O)c2cccc(C(F)(F)F)c2)cc1Oc1ccc2nc(NC(=O)C3CC3)nn2c1` [Example 235, N-[3-({2-[(cyclopropylcarbonyl)amino][1,2,4]triazolo[1,5-a]pyridin-6-yl}oxy)-4-methylphenyl]-3-(trifluoromethyl)benzamide], the inhibition at 1 µM on BRAF (V600E) kinase is 100%.

The values are drawn from US8304557B2, “Fused heterocycle derivatives and use thereof” (Takeda Pharmaceutical Company Limited, priority 2007, dated 2012).
